Assays:
apple variety “Fuji” = experiment: Coloring test of apple; type: in vivo; settings: for Coloring of red compared with 5-aminolevulinic acid hydrochloride: in vivo
Method: The 5-aminolevulinic acid phosphate obtained in Example 1 was dissolved in ion exchange water to the predetermined concentration shown in the following table. A spreader (“Approach BI” manufactured by Maruwa Biochemical) was added to the liquid to a concentration of 0.1% by weight. The pH was adjusted using phosphoric acid.
An aqueous 5-aminolevulinic acid hydrochloride solution was prepared in the same manner, except that the above-described 5-aminolevulinic acid phosphate was changed to 5-aminolevulinic acid hydrochloride and the phosphoric acid for pH adjustment was changed to hydrochloric acid.
The thus prepared liquid was sprayed at a ratio of 2 liters per branch on three main branches where young fruits of an apple variety “Fuji” bored but not yet colored into red (September 15). About 2 months thereafter (November 6), the apples were harvested and their coloring degree was examined. A color meter CR-200 manufactured by MINOLTA CAMERA was used for the measurement of color.
The 5-aminolevulinic acid nitrate obtained in Example 16 was dissolved in ion exchange water to the predetermined concentration shown in Table 16. A spreader (“Approach BI” manufactured by Maruwa Biochemical) was added to the liquid to a concentration of 0.1% by weight. The pH was adjusted using nitric acid.
A solution was prepared in the same manner, except that the above-described 5-aminolevulinic acid nitrate was changed to 5-aminolevulinic acid hydrochloride and the nitric acid was changed to hydrochloric acid.
The 5-aminolevulinic acid p-toluenesulfonate obtained in Example 23 was dissolved in ion exchange water to the predetermined concentration shown in Table 24. A spreader (“Approach B1” manufactured by Maruwa Biochemical) was added to the liquid to a concentration of 0.1% by weight. The pH was adjusted using p-toluenesulfonic acid.
A solution was prepared in the same manner, except that the above-described 5-aminolevulinic acid p-toluenesulfonate was changed to 5-aminolevulinic acid hydrochloride and the p-toluenesulfonic acid was changed to hydrochloric acid.

[1] = Test on the generation of silver chloride precipitation with silver nitrate; type: physicochemical; settings: 0.5 g with 0.5 g of silver nitrate in 10 ml of ion exchange water, 5 minutes
Method: In 10 ml of ion exchange water, 0.5 g of 5-aminolevulinic acid phosphate and 0.5 g of silver nitrate were dissolved, the mixture was allowed to stand still for 5 minutes, and conditions of the liquid was observed. […] In this connection, 0.5 g of 5-aminolevulinic acid hydrochloride and 0.5 g of silver nitrate were dissolved in 10 ml of ion exchange water and allowed to stand still for 5 minutes, and conditions of the liquid was observed.
In 10 ml of ion exchange water, 0.5 g of 5-aminolevulinic acid nitrate and 0.5 g of silver nitrate were dissolved, the mixture was allowed to stand still for 5 minutes, and conditions of the liquid was observed.
In this connection, 0.5 g of 5-aminolevulinic acid hydrochloride and 0.5 g of silver nitrate were dissolved in 10 ml of ion exchange water and allowed to stand still for 5 minutes, and conditions of the liquid was observed.
In 10 ml of ion exchange water, 0.5 g of 5-aminolevulinic acid p-toluenesulfonate and 0.5 g of silver nitrate were dissolved, the mixture was allowed to stand still for 5 minutes, and conditions of the liquid was observed.

Chlorella sp. = experiment: Culturing of plankton; type: cell-based; settings: for amount of cells: OD 660 nm: 1 mM additive
Method: (§1) 5-Aminolevulinic acid nitrate was added, to a concentration of 1 mM (194 ppm), to 100 ml of a sterilized culture shown in Table 17 (components of the culture), and a Chlorella sp. was inoculated therein and cultured on a reciprocal shaker at 30° C. under aerobic and dark conditions to measure the amount of cells (OD 660).
as §1, with “acid hydrochloride” for “acid nitrate”, “mM (168” for “mM (194”, “of the” for “of a”, “and the” for “and a”
The Chlorella sp. was inoculated into 100 ml of the sterilized culture shown in Table 17 (components of the culture) and cultured on a reciprocal shaker at 30° C. under aerobic and dark conditions to measure the amount of cells (OD 660).

radish = experiment: Plant activating effect, foliar application, radish; type: in vivo; settings: 21 days, 12 seeds
Method: After 600 g of upland soil was packed in a porcelain pot of 12 cm in inner diameter, 12 grains of radish seeds were sowed therein, covered with 5 mm in depth of the soil and allowed to grow in a green house. Foliar application treatment was carried out once a day using the following application liquids. Conditions of the leaves 21 days thereafter were observed.

[2] = Chloride ion concentration of aqueous solutions by ion chromatography; type: physicochemical; settings: detection limit 0.1 ppm; each sample
Method: When chloride ion concentration in the aqueous 5-aminolevulinic acid phosphate solutions used in the above-described examples was measured by ion chromatography under the following conditions, it was equal to or lower than the detection limit (0.1 ppm) in each sample.
(§2) The measuring conditions are as follows; A: separation column (IonPac AS12A manufactured by Japan Dionex), B: guard column (IonPac AG12A manufactured by Japan Dionex), C: eluting solution (an aqueous solution containing Na2CO3: 3.0 mmol/l and NaHCO3: 0.5 mmol/l), D: flow rate (1.5 ml/min), E: suppressor (ASRS (recycle mode, current value 50 mA)), F: amount of introduced sample (25 μl), G: temperature of constant temperature oven (35° C.) and H: detector (electric conductivity detector).
When chloride ion concentration in the aqueous 5-aminolevulinic acid nitrate solutions used in the above-described examples was measured by ion chromatography under the following conditions, it was equal to or lower than the detection limit (0.1 ppm) in each sample.
as §2, with “follows:” for “follows;”, “consisting of” for “containing”
When chloride ion concentration in the aqueous 5-aminolevulinic acid p-toluenesulfonate solutions used in the above-described examples was measured by ion chromatography under the following conditions, it was equal to or lower than the detection limit (0.1 ppm) in each sample.

[3] = Degradation test by sterilization; type: physicochemical
Method: Firstly, 50 mg of 5-aminolevulinic acid p-toluenesulfonate or 5-aminolevulinic acid hydrochloride was heat sterilized (121° C., 20 minutes, 1.5 kgf/cm^2). After confirming that there is no change in weight before and after the sterilization, degree of degradation of 5-aminolevulinic acid before and after the sterilization was verified by the method described in a reference (Clin. Chem., 36/8, 1494 (1990)).

Structure (SMILES) | Coloring, L (apple variety “Fuji”; 100 ppm (pH 5.0)) | Coloring, a (apple variety “Fuji”; 100 ppm (pH 5.0)) | Coloring, b (apple variety “Fuji”; 100 ppm (pH 5.0)) | Coloring, L (apple variety “Fuji”; 200 ppm (pH 4.9)) | Coloring, a (apple variety “Fuji”; 200 ppm (pH 4.9)) | Coloring, b (apple variety “Fuji”; 200 ppm (pH 4.9)) | Coloring of red compared with 5-aminolevulinic acid hydrochloride (apple variety “Fuji”) | generation of precipitate [1] | plants judged 0: Abnormality was not found on the leaf surface (radish; 1 ppm in tap water) | plants judged 1: A region discolored to yellow was found on the leaf surface (radish; 1 ppm in tap water) | plants judged 2: A necrotic region was found on the leaf surface (radish; 1 ppm in tap water) | plants judged 0: Abnormality was not found on the leaf surface (radish; 10 ppm in tap water) | plants judged 1: A region discolored to yellow was found on the leaf surface (radish; 10 ppm in tap water) | plants judged 2: A necrotic region was found on the leaf surface (radish; 10 ppm in tap water) | plants judged 0: Abnormality was not found on the leaf surface (radish; 100 ppm in tap water) | plants judged 1: A region discolored to yellow was found on the leaf surface (radish; 100 ppm in tap water) | plants judged 2: A necrotic region was found on the leaf surface (radish; 100 ppm in tap water) | chloride ion concentration in the aqueous solutions used in the examples [2] | also measured
NCC(=O)CCC(=O)O.O=[N+]([O-])O [5-aminolevulinic acid nitrate, 5-aminolevulinic Acid Nitrate] | 42.41 | 26.51 | 14.46 | 42.47 | 31.00 | 14.72 | Coloring of red was denser | Generation of the precipitate was not found | 5 plants | 5 plants | 2 plants | 6 plants | 5 plants | 1 plant^ plants | 4 plants | 6 plants | 2 plants | ≤ 0.1 ppm | effect on Chlorella culture compared with hydrochloride (Chlorella sp.): showed the same effect of 5-aminolevulinic acid hydrochloride; amount of cells: OD 660 nm (Chlorella sp.; Culture time 0 day): 1.8; amount of cells: OD 660 nm (Chlorella sp.; Culture time 1 day): 6.5; amount of cells: OD 660 nm (Chlorella sp.; Culture time 2 day): 12.6; amount of cells: OD 660 nm (Chlorella sp.; Culture time 3 day): 15.0
Cc1ccc(S(=O)(=O)O)cc1.NCC(=O)CCC(=O)O [5-aminolevulinic acid p-toluenesulfonate, 5-aminolevulinic Acid p-toluenesulfonate] | 42.39 | 26.44 | 14.69 | 42.36 | 30.93 | 14.34 | Coloring of red was denser | Generation of the precipitate was not found | 6 plants | 3 plants | 3 plants | 5 plants | 5 plants | 2 plants | 7 plants | 4 plants | 1 plant^ plants | ≤ 0.1 ppm | degradability by high temperature heat sterilization compared with hydrochloride [3]: lower degradability; Degradation degree (%) ([3]; 50 mg heat sterilized, 121° C., 20 minutes, 1.5 kgf/cm^2): 2.7%

Source: US8471061B2 (priority 2004, dated 2013)
